Entries after “also recorded” stand apart in the source; their conditions may differ. Like-named read-outs stand apart in the source and are kept apart here.
What was measured:
[1] = system: A20 lymphoma; experiment: Syngeneic A20 lymphoma mouse model; format: in vivo; settings: monotherapy; for tumor growth: compared with vehicle
[2] = system: NF-κβ-luc reporter; experiment: NF-κβ-luc reporter activation in HEK293 (SZ14) cells, screen for STING agonists; format: cell-based; settings: digitonin buffer, 5 hours, read-out: NF-KB EC50
Method: (§1) ISG54 or NF-κβ activity was determined using the Steady-glo buffer system (Promega), and are expressed as EC50 values summarized in Table 3 below. […] This calculation is applicable for compounds with enzyme inhibition activity, as the baseline for an untreated sample may be set at 100% enzymatic activity, and therefore % inhibition is evaluated based on this 100% maximal basis. For these studies, the EC50 value relates to the concentration required to achieve a value 50% activity level above the untreated sample set at 0%.
(§2) Data are shown as fold induction over cells that received DMSO (compound carrier) alone as the mean, +/−standard deviation of duplicate wells per stimulant.

[3] = system: ISG54 ISRE-luc reporter; experiment: ISG54 ISRE-luc reporter activation in HEK293 (SZ14) cells, screen for STING agonists; format: cell-based; settings: digitonin buffer, 5 hours, read-out: IRF EC50
Method: as §1, §2

[4] = system: THP1 cells and PBMCs; experiment: Gene expression of ISGs and PRRs in THP1 and PBMCs (real time PCR); format: cell-based; settings: 5 uM, Lipofectamine LTX, 20 h
Method: (§3) After incubation for 20 h, RNA was extracted and gene expression of different Interferon Stimulated Genes (ISGs) and various Pattern Recognition Receptors (PRRs) was evaluated by real time PCR. Fold Induction was calculated by ΔΔct method.
as §3

[5] = system: human monocytes; experiment: Activity in human monocytes; format: cell-based; settings: human monocytes (FIG. 36A)
[6] = system: mouse macrophages; experiment: Type I IFN signaling in mouse macrophages; format: cell-based; settings: mouse macrophages (FIG. 36B)
Method: Activity of secreted luciferase in cell culture supernatant was measured using Invivogen Quanti-luc. Data are shown as fold induction over DMSO treated cells (mean±standard deviation of triplicate wells per stimulant).

[7] = system: THP1 cells; experiment: Type III IFN (IL-29) production in THP1 cells (ELISA); format: cell-based; settings: 21 hrs
Method: Level of IL-29 in culture supernatant was determined using ELISA. Results shown are the average±standard deviation of duplicate wells.

[8] = system: CT26 colon cancer; experiment: Syngeneic CT26 colon cancer mouse model; format: in vivo; settings: intratumoral administration
[9] = vs vehicle, vehicle and Ethanol (FIG. 80)

## CCCCCCCCCCOc1ccc(C(=O)Oc2ccc(CS[P@]3(=O)OC[C@H]4O[C@@H](n5cnc6c(N)ncnc65)[C@H](F)[C@@H]4OP(=O)(O)OC[C@H]4O[C@@H](n5ccc(=O)[nH]c5=O)[C@H](F)[C@@H]4O3)cc2)cc1.N (single isomer, unassigned) [Cmd 1A]
[1]
  survival rate: significantly improve the survival rate
  tumor growth: inhibit mouse A20 B cell lymphoma tumor cells
[2]
  EC50: 50 to 500 nM
[3]
  EC50: < 50 nM

## CCCCCCCCCCOc1ccc(C(=O)Oc2ccc(CS[P@@]3(=O)OC[C@H]4O[C@@H](n5cnc6c(N)ncnc65)[C@H](F)[C@@H]4OP(=O)(O)OC[C@H]4O[C@@H](n5ccc(=O)[nH]c5=O)[C@H](F)[C@@H]4O3)cc2)cc1 (single isomer, unassigned) [Cmd 1B]
[2]
  EC50: 50 to 500 nM
[3]
  EC50: < 50 nM

## Nc1ncnc2c1ncn2[C@@H]1O[C@@H]2COP(=O)(S)O[C@H]3[C@@H](F)[C@H](n4ccc(=O)[nH]c4=O)O[C@@H]3COP(=O)(S)O[C@H]2[C@H]1F (some centres unmarked) [Cmd 2]
[2]; Homo sapiens
  EC50: > 2000 nM
[3]; Homo sapiens
  EC50: 1000 to 2000 nM

## CCCCCCCCCCOc1ccc(C(=O)Oc2ccc(CSP3(=O)OC[C@H]4O[C@@H](n5cnc6c(N)ncnc65)[C@H](F)[C@@H]4OP(=O)(SCc4ccc(OC(=O)c5ccc(OCCCCCCCCCC)cc5)cc4)OC[C@H]4O[C@@H](n5ccc(=O)[nH]c5=O)[C@H](F)[C@@H]4O3)cc2)cc1 (some centres unmarked) [Cmd 4]
[2]
  EC50: > 2000 nM
[4]
  induction of ISG and PRR-associated genes, THP1 compared to PBMCs: Enhanced Activity
[3]
  EC50: 1000 to 2000 nM

## CC(C)OC(=O)OCSP1(=O)OC[C@H]2O[C@@H](n3cnc4c(N)ncnc43)[C@H](F)[C@@H]2OP(=O)(O)OC[C@H]2O[C@@H](n3ccc(=O)[nH]c3=O)[C@H](F)[C@@H]2O1.N (some centres unmarked) [Cmd 5]
[5]
  activity relative to natural STING ligand 3′,3′-cGAMP: more active
[6]
  activity relative to natural STING ligand 3′,3′-cGAMP: more active
[2]
  EC50: > 2000 nM
[3]
  EC50: > 2000 nM

## CCCCCCCCOc1ccc(C(=O)Oc2ccc(CSP3(=O)OC[C@H]4O[C@@H](n5cnc6c(N)ncnc65)[C@H](F)[C@@H]4OP(=O)(O)OC[C@H]4O[C@@H](n5ccc(=O)[nH]c5=O)[C@H](F)[C@@H]4O3)cc2)cc1.N (some centres unmarked) [Cmd 12]
[5]
  activity relative to natural STING ligand 3′,3′-cGAMP: more active
[6]
  activity relative to natural STING ligand 3′,3′-cGAMP: more active
[2]
  EC50: < 50 nM
[3]
  EC50: < 50 nM

## CCCCCCCCCCCC(=O)Oc1ccc(CSP2(=O)OC[C@H]3O[C@@H](n4cnc5c(N)ncnc54)[C@H](F)[C@@H]3OP(=O)(O)OC[C@H]3O[C@@H](n4ccc(=O)[nH]c4=O)[C@H](F)[C@@H]3O2)cc1.N (some centres unmarked) [Cmd 13]
[5]
  activity relative to natural STING ligand 3′,3′-cGAMP: more active
[6]
  activity relative to natural STING ligand 3′,3′-cGAMP: more active
[2]
  EC50: 50 to 500 nM
[3]
  EC50: < 50 nM

## CCCCCCOc1ccc(C(=O)Oc2ccc(CSP3(=O)OC[C@H]4O[C@@H](n5cnc6c(N)ncnc65)[C@H](F)[C@@H]4OP(=O)(O)OC[C@H]4O[C@@H](n5ccc(=O)[nH]c5=O)[C@H](F)[C@@H]4O3)cc2)cc1.N (some centres unmarked) [Cmd 14]
[5]
  activity relative to natural STING ligand 3′,3′-cGAMP: more active
[6]
  activity relative to natural STING ligand 3′,3′-cGAMP: more active
[2]
  EC50: < 50 nM
[3]
  EC50: < 50 nM

## CCCCCCCCCCCCOc1ccc(C(=O)Oc2ccc(CSP3(=O)OC[C@H]4O[C@@H](n5cnc6c(N)ncnc65)[C@H](F)[C@@H]4OP(=O)(O)OC[C@H]4O[C@@H](n5ccc(=O)[nH]c5=O)[C@H](F)[C@@H]4O3)cc2)cc1.N (some centres unmarked) [Cmd 15]
[7]
  type III interferon (IL-29) production: induce type III interferon (IL-29) production
[5]
  activity relative to natural STING ligand 3′,3′-cGAMP: more active
[6]
  activity relative to natural STING ligand 3′,3′-cGAMP: more active
[2]
  EC50: < 50 nM
[3]
  EC50: < 50 nM

## CO[C@@H]1[C@@H]2OP(=O)(S)OC[C@H]3O[C@@H](n4cnc5c(N)ncnc54)C[C@@H]3OP(=O)(S)OC[C@H]2O[C@H]1n1ccc(=O)[nH]c1=O (some centres unmarked) [Cmd 17]
[2]; Homo sapiens
  EC50: > 2000 nM
[3]; Homo sapiens
  EC50: > 2000 nM

## Nc1nc2c(ncn2[C@@H]2O[C@@H]3COP(=O)(S)O[C@H]4[C@@H](O)[C@H](n5cnc6c(=O)[nH]c(N)nc65)O[C@@H]4COP(=O)(S)O[C@H]3[C@H]2O)c(=O)[nH]1 (some centres unmarked) [Cmd 18]
[2]; Homo sapiens
  EC50: > 2000 nM
[3]; Homo sapiens
  EC50: > 2000 nM

## CCCCCCCCCCOc1ccc(C(=O)Oc2ccc(CSP3(=O)OC[C@H]4O[C@@H](n5cnc6c(N)ncnc65)C[C@@H]4OP(=O)(SCc4ccc(OC(=O)c5ccc(OCCCCCCCCCC)cc5)cc4)OC[C@H]4O[C@@H](n5ccc(=O)[nH]c5=O)[C@H](OC)[C@@H]4O3)cc2)cc1 (some centres unmarked) [Cmd 20]
[2]
  EC50: > 2000 nM
[3]
  EC50: > 2000 nM

## N.N.Nc1ncnc2c1ncn2[C@@H]1O[C@@H]2COP(=O)(S)O[C@H]3[C@@H](F)[C@H](n4ccc(=O)[nH]c4=O)O[C@@H]3COP(=O)(O)O[C@H]2[C@H]1F (some centres unmarked) [Cmd 21]
[1]
  survival rate: significantly improve the survival rate
  tumor growth: considerable tumor growth inhibition; also recorded: inhibit mouse A20 B cell lymphoma tumor cells
[2]; Homo sapiens
  EC50: > 2000 nM
[8]; vs vehicle (FIG. 79)
  tumor growth: considerable tumor growth inhibition
[8]; [9]
  tumor growth: considerable tumor growth inhibition
[3]; Homo sapiens
  EC50: 500 to 1000 nM

## CCCCCCCCCCCCOc1ccc(C(=O)Oc2ccc(CS[P@@]3(=O)OC[C@H]4O[C@@H](n5cnc6c(N)ncnc65)[C@H](F)[C@@H]4OP(=O)(O)OC[C@H]4O[C@@H](n5ccc(=O)[nH]c5=O)[C@H](F)[C@@H]4O3)cc2)cc1 [Cmd 22]
[2]
  EC50: 50 to 500 nM
[3]
  EC50: < 50 nM

## CCCCCCCCCCCCOc1ccc(C(=O)Oc2ccc(CS[P@]3(=O)OC[C@H]4O[C@@H](n5cnc6c(N)ncnc65)[C@H](F)[C@@H]4OP(=O)(O)OC[C@H]4O[C@@H](n5ccc(=O)[nH]c5=O)[C@H](F)[C@@H]4O3)cc2)cc1 [Cmd 23]
[2]
  EC50: 50 to 500 nM
[3]
  EC50: < 50 nM

## CCCCCCCCCCOc1ccc(C(=O)Oc2ccc(CSP3(=O)OC[C@H]4O[C@@H](n5cnc6c(N)ncnc65)[C@H](F)[C@@H]4OP(=O)(O)OC[C@H]4O[C@@H](n5ccc(=O)[nH]c5=O)[C@H](F)[C@@H]4O3)cc2)c(C)c1 (some centres unmarked) [Cmd 25]
[2]
  EC50: 50 to 500 nM
[8]; vs vehicle (FIG. 79)
  tumor growth: considerable tumor growth inhibition
[8]; [9]
  tumor growth: considerable tumor growth inhibition
[3]
  EC50: < 50 nM

## CCCCCCCCCCOC(=O)Oc1ccc(CSP2(=O)OC[C@H]3O[C@@H](n4cnc5c(N)ncnc54)[C@H](F)[C@@H]3OP(=O)(O)OC[C@H]3O[C@@H](n4ccc(=O)[nH]c4=O)[C@H](F)[C@@H]3O2)cc1 (some centres unmarked) [Cmd 26]
[2]
  EC50: < 50 nM
[3]
  EC50: < 50 nM

## CCCCCCCCCCOc1ccc(Oc2ccc(CSP3(=O)OC[C@H]4O[C@@H](n5cnc6c(N)ncnc65)[C@H](F)[C@@H]4OP(=O)(O)OC[C@H]4O[C@@H](n5ccc(=O)[nH]c5=O)[C@H](F)[C@@H]4O3)cc2)cc1 (some centres unmarked) [Cmd 29]
[2]
  EC50: 500 to 1000 nM
[3]
  EC50: 50 to 500 nM

## CCCCCCCCCCOc1ccc(C(=O)Nc2ccc(CSP3(=O)OC[C@H]4O[C@@H](n5cnc6c(N)ncnc65)[C@H](F)[C@@H]4OP(=O)(O)OC[C@H]4O[C@@H](n5ccc(=O)[nH]c5=O)[C@H](F)[C@@H]4O3)cc2)cc1 (some centres unmarked) [Cmd 30]
[2]
  EC50: > 2000 nM
[3]
  EC50: 500 to 1000 nM

## CCCCCCCCCCOc1ccc(C(=O)NCc2ccc(CSP3(=O)OC[C@H]4O[C@@H](n5cnc6c(N)ncnc65)[C@H](F)[C@@H]4OP(=O)(O)OC[C@H]4O[C@@H](n5ccc(=O)[nH]c5=O)[C@H](F)[C@@H]4O3)cc2)cc1 (some centres unmarked) [Cmd 31]
[2]
  EC50: > 2000 nM
[3]
  EC50: 500 to 1000 nM

## CCCCCCCCCCNC(=O)Oc1ccc(CSP2(=O)OC[C@H]3O[C@@H](n4cnc5c(N)ncnc54)[C@H](F)[C@@H]3OP(=O)(O)OC[C@H]3O[C@@H](n4ccc(=O)[nH]c4=O)[C@H](F)[C@@H]3O2)cc1 (some centres unmarked) [Cmd 32]
[2]
  EC50: 50 to 500 nM
[3]
  EC50: 50 to 500 nM
